Entries after “also recorded” stand apart in the source; their conditions may differ.
Key:
SNU-398 cells = experiment: Caspase 3/7 assay in SNU-398 cells; format: cell-based, human; settings: SNU-398 after knockdown
From the text: FIGS. 25A-25G: Functional roles of SALL4 in HCC. (25A) qPCR analysis of relative SALL4A and SALL4B expression on SNU-398 cells four days post-transduction. Error bars indicate standard error of three replicates. (25B) Western blot analysis of SALL4 expression on SNU-398 cells four days post-transduction. (25C) MTS analysis of cell viability upon gene knockdown by scrambled control shRNA (Scr) or E5 shRNA targeting SALL4 (E5) on SNU-398 (left) or SNU-387 (right) cells. Error bars indicate standard error of three replicates. (25D) Cell counting assay using trypan blus stain. […] (25F) Effects of SALL4 gene knockdown on tumorigenecity of HuH-7 cells. Representative images of mice transplanted with HuH-7 cells infected with virus expressing scrambled shRNA or E5 shRNA (top).
To further characterize the effects of loss of SALL4 in HCC cells, more functional assays in SNU-398 cells, which express high SALL4, were carried out. […] Furthermore, increased apoptosis in SALL4-knockdown HCC cells was observed by assessing caspase activities. Increased caspase 3/7 activities was observed upon loss of SALL4 in SNU-398 HCC cells (FIG. 30D), as well as increased cleaved caspase 3 (FIG. 30E).

[1] = test system: H661 lung carcinoma cells; experiment: MTS assay in lung carcinoma cells after knock-down; format: cell-based
From the text: FIGS. 16A-16B: Loss of SALL4 in lung cancer cells that express high level of SALL4 decreases cell viability. (16A) qPCR (bar chart) and western blot were done to confirm the dwonregulation of SALL4 RNA (qPCR) and protein (western blot) expression levels upon SALL4 gene knockdown by shRNA (E5) compared to the control (SC).

SALL4A and SALL4B = experiment: SALL4 knock-down in endometrial cancer cells (Western blot, qRT-PCR); format: cell-based, human; settings: AN3CA and HEC-1A
From the text: In brief, the expression plasmids for human SALL4A and SALL4B were constructed using FUW-Luc-mCh-puro vector (FIG. 43A). SALL4A or SALL4B mutant preserving the same amino acid sequence, but containing triple-point mutations within the SALL4shRNA1 target nucleotide sequence, which renders the transgenes resistant to SALL4 shRNA targeting, were generated using QuikChange site-directed mutagenesis kit (Stratagene) and confirmed by sequencing. Short hairpin RNAs set for human SALL4 in pLKO.1-puro vector were purchased from Open Biosystems (RHS3979) and knockdown efficiency was further evaluated. Two of them, designated as SALL4shRNA1 and SALL4shRNA 2, were selected for subsequent experiments. The sequences for SALL4 shRNAs and Scramble shRNA are listed as following: SALL4shRNA1: […] (SEQ ID NO: 3); SALL4shRNA 2: CTATTTAGCCAAAGGCAAA (SEQ ID NO: 2); Scr-shRNA: […] (SEQ ID NO: 14)
To assess the biological functional role of SALL4 in endometrial cancer, first evaluated was SALL4 expression in a panel of six endometrial cancer cell lines using quantitative real-time PCR to select for appropriate models for our functional studies (FIG. 40). […]

PTEN/AKT pathway = PTEN/AKT pathway expression in SNU-387 cells after treatment (Western blot); format: cell-based, human; settings: SNU-387, Western blot
From the text: The induction of Pten expression was not affected when wt peptide was administrated together with a Pten inhibitor. AKT, a molecule with levels of phosphorylation controlled by the expression of Pten was affected by the wt peptide addition accordingly. […] The effect of wt peptide on pAKT was abrogated by the Pten inhibitor. […] In contrast, the protein expression level of endogenous Pten was very high in the none-SALL4 expressing SNU387 cells.
To confirm the involvement of PTEN tumor suppressor in SALL4 peptide-induced reduction of number of viable HCC cells, PTEN expression was analyzed by western blot upon drug treatment. […] Whether the increase in PTEN expression upon SALL4 peptide treatment has an effect in PI3K signalling by dephosphorylating AKT was examined.
To confirm the involvement of the PTEN tumor suppressor in the SALL4 peptide-induced reduction of HCC cell viability, PTEN expression was analyzed by western blot upon drug treatment. […] If the increase in PTEN expression has an effect in PI3K signaling was next examined. PTEN functions as a phosphatase to dephosphorylate AKT.

Substance | caspase 3/7 activity (apoptosis) (SNU-398 cells) | cell viability (MTS) [1] | down-regulation of SALL4A and SALL4B (SALL4A and SALL4B) | PTEN protein expression (PTEN/AKT pathway) | phosphorylated AKT (pAKT) level (PTEN/AKT pathway) | PTEN protein expression (PTEN/AKT pathway; listed as SALL4 peptide)
CTATTTAGCCAAAGGCAAA (short hairpin RNA, chemistry and delivery not given here, further chemistry not given here) [E5 shRNA] | increase in apoptosis activity | decrease of cell viability | could down-regulate SALL4A and SALL4B efficiently |  |  | 
H-MSRRKQAKPQHI-OH [wt peptide, MSRRKQAKPQHI] |  |  |  | did not seem to change the expression of Pten significantly | little or no effect | slight increase in PTEN expression; also recorded: negligible effect on PTEN expression
